# Results from patent publication EP2697230B1, “COMPOUNDS FOR THE TREATMENT OF HEPATITIS C” (priority 2011, dated 2012).
# System: HCV pseudoparticles, genotype 1a HCV E1 and E2 envelope (H77C isolate)
# Assay: HCV pseudoparticle infection assay (luciferase reporter, Huh7 cells)
# Format: cell-based
# Settings: Hepatitis C virus, Huh-7, 48 h, read-out: EC50 (nM) 1a (H77C), class symbol, HCV pseudoparticles genotype 1a (H77C), luciferase 2 days after infection
row,Structure (SMILES),EC50 [nM]
1,CCOC(=O)N1CCCCNC(=O)c2ccc(cc2)Nc2nc(nc(OCC(F)(F)F)n2)NCc2ccc(cc2)OCC1 [Example 4014],0.1 to 100
2,CCCN1CCCNC(=O)c2ccc(cc2)Nc2nc(nc(OCC(F)(F)F)n2)NCc2ccc(cc2)OCCC1 [Example 6027],0.1 to 100
3,O=C1NCc2ccc(cc2)Nc2nc(nc(OCC(F)(F)F)n2)NCc2cccc(c2)CNC(=O)OCCOCCOCCO1 [Example 0068],100 to 1000
4,O=C1NCCCCNC(=O)NCc2ccc(cc2)Nc2nc(nc(OCC(F)(F)F)n2)NCc2ccc(cc2)CN1 [Example 0053],100 to 1000
5,O=C1CNC(=O)c2ccc(cc2)Nc2nc(nc(OCC(F)(F)F)n2)NCc2ccc(cc2)NC(=O)CN1 [Example 3002],100 to 1000
6,COC(=O)N1CCCOc2ccc(cc2)CNc2nc(nc(OCC(F)(F)F)n2)Nc2ccc(cc2)C(=O)NCC(C)(C)C1 [Example 6032],0.1 to 100
7,CNC(=O)N1CCCCNC(=O)c2ccc(cc2)Nc2nc(nc(OCC(F)(F)F)n2)NCc2ccc(cc2)OCCC1 [Example 6021],0.1 to 100
8,COC(=O)N1CCCCCCCCNc2nc(nc(OCC(F)(F)F)n2)Nc2ccc(cc2)C(=O)NCCC1 [Example 9003],0.1 to 100
9,COC(=O)N1CCCCNC(=O)c2ccc(cc2)Nc2nc(nc(OCC(F)(F)F)n2)NCc2ccc(cc2)OCC1 [Example 4013],0.1 to 100
10,O=C1NCCCCCCNC(=O)NCc2ccc(cc2)Nc2nc(nc(OCC(F)(F)F)n2)NCc2ccc(cc2)CN1 [Example 0055],100 to 1000
11,CC(C)N1CCCNC(=O)c2ccc(cc2)Nc2nc(nc(OCC(F)(F)F)n2)NCc2ccc(cc2)OCCC1 [Example 6025],0.1 to 100
12,CC1(C)CNCCCOc2ccc(cc2)CNc2nc(nc(OCC(F)(F)F)n2)Nc2ccc(cc2)C(=O)NC1 [Example 6024],0.1 to 100
13,CC(C)OC(=O)N1CCCCNC(=O)c2ccc(cc2)Nc2nc(nc(OCC(F)(F)F)n2)NCc2ccc(cc2)OCC1 [Example 4015],0.1 to 100
14,CC1(C)C(=O)NCc2ccc(cc2)CNc2nc(nc(OCC(F)(F)F)n2)Nc2ccc(cc2)CNC1=O [Example 0071],100 to 1000
15,CCN(CC)CCN1CCNC(=O)c2ccc(cc2)Nc2nc(nc(OCC(F)(F)F)n2)Nc2ccc(cc2)C1=O [Example 0021],100 to 1000
16,O=C1NCCCCNC(=O)c2ccc(cc2)Nc2nc(nc(OCC(F)(F)F)n2)NCc2ccc1cc2 [Example 0033],100 to 1000
17,COCC(=O)N1CCCCNC(=O)c2ccc(cc2)Nc2nc(nc(OCC(F)(F)F)n2)NCc2ccc(cc2)OCC1 [Example 4035],0.1 to 100
18,COC(=O)N1CCCOc2ccc(cc2)CNc2nc(nc(OCC(F)(F)F)n2)Nc2ccc(cc2)C(=O)NCC1 [Example 6006],0.1 to 100
19,CN1CCCNC(=O)c2ccc(cc2)Nc2nc(nc(OCC(F)(F)F)n2)Nc2ccc(cc2)C(=O)NCCC1 [Example 0022],100 to 1000
20,O=C1NCc2ccc(cc2)Nc2nc(nc(OCC(F)(F)F)n2)NCc2cccc(c2)CNC(=O)Nc2cccc(c2)N1 [Example 0052],100 to 1000
21,CC(C)OC(=O)N1CCCCOc2ccc(cc2)CNc2nc(nc(OCC(F)(F)F)n2)Nc2ccc(cc2)C(=O)NCCC1 [Example 4025],0.1 to 100

row,Structure (SMILES),EC50 [nM]
1,CNC(=O)N1CCCCOc2ccc(cc2)CNc2nc(nc(OCC(F)(F)F)n2)Nc2ccc(cc2)C(=O)NCCC1 [Example 4030],0.1 to 100
2,O=C1CCCNC(=O)c2ccc(cc2)Nc2nc(nc(OCC(F)(F)F)n2)NCc2ccc(cc2)OCC=CCS(=O)(=O)N1 [Example 3010],0.1 to 100
3,CC1(C)CNC(=O)c2ccc(cc2)Nc2nc(nc(OCC(F)(F)F)n2)NCc2ccc(cc2)OCCCN(C(=O)OC(C)(C)C)C1 [Example 6036],0.1 to 100
4,CCNC(=O)N1CCCCNC(=O)c2ccc(cc2)Nc2nc(nc(OCC(F)(F)F)n2)NCc2ccc(cc2)OCCC1 [Example 6022],0.1 to 100
5,O=C1NCCCCCNc2cccc(c2)C2(CC2)Nc2nc(nc(OCC(F)(F)F)n2)Nc2ccc1cc2 [Example 3001],0.1 to 100
6,CCNC(=O)N1CCCNC(=O)c2ccc(cc2)Nc2nc(nc(OCC(F)(F)F)n2)NCc2ccc(cc2)OCCC1 [Example 6012],0.1 to 100
7,CC1(C)CNC(=O)c2ccc(cc2)Nc2nc(nc(OCC(F)(F)F)n2)NCc2ccc(cc2)OCCCN(C(=O)NC(C)(C)C)C1 [Example 6031],0.1 to 100
8,O=C1CCCCNC(=O)c2ccc(cc2)Nc2nc(nc(OCC(F)(F)F)n2)NCc2ccc(cc2)OC/C=C/S(=O)(=O)N1 [Example 3012],100 to 1000
9,O=C1NCCCNCCCOc2ccc(cc2)CNc2nc(nc(OCC(F)(F)F)n2)Nc2ccc1cc2 [Example 6011],0.1 to 100
10,CC(=O)N1CCCCOc2ccc(cc2)CNc2nc(nc(OCC(F)(F)F)n2)Nc2ccc(cc2)C(=O)NCCC1 [Example 4018],0.1 to 100
11,CC(C)C(=O)N1CCCCNC(=O)c2ccc(cc2)Nc2nc(nc(OCC(F)(F)F)n2)NCc2ccc(cc2)OCC1 [Example 4004],0.1 to 100
12,CCN1CCCNC(=O)c2ccc(cc2)Nc2nc(nc(OCC(F)(F)F)n2)NCc2ccc(cc2)OCCC1 [Example 6026],0.1 to 100
13,O=C1COCC(=O)NCc2ccc(cc2)Nc2nc(nc(OCC(F)(F)F)n2)NCc2ccc(cc2)CN1 [Example 0069],0.1 to 100
14,CCCNC(=O)N1CCCOc2ccc(cc2)CNc2nc(nc(OCC(F)(F)F)n2)Nc2ccc(cc2)C(=O)NCC(C)(C)C1 [Example 6030],0.1 to 100
15,O=C1CNC(=O)c2ccc(cc2)Nc2nc(nc(OCC(F)(F)F)n2)NCc2ccc(cc2)OCC=CCS(=O)(=O)N1 [Example 3007],100 to 1000
16,CCC(=O)N1CCCCOc2ccc(cc2)CNc2nc(nc(OCC(F)(F)F)n2)Nc2ccc(cc2)C(=O)NCCC1 [Example 4019],0.1 to 100
17,CC(=O)N1CCCCCCCCNc2nc(nc(OCC(F)(F)F)n2)Nc2ccc(cc2)C(=O)NCCC1 [Example 9009],0.1 to 100
18,O=C1NCc2ccc(cc2)CNc2nc(nc(OCC(F)(F)F)n2)Nc2ccc(cc2)CNC(=O)Nc2cccc(c2)N1 [Example 0051],100 to 1000
19,CC(C)(C)OC(=O)N1CCCCOc2ccc(cc2)CNc2nc(nc(OCC(F)(F)F)n2)Nc2ccc(cc2)C(=O)NCCC1 [Example 4026],0.1 to 100
20,CCNC(=O)N1CCCOc2ccc(cc2)CNc2nc(nc(OCC(F)(F)F)n2)Nc2ccc(cc2)C(=O)NCC(C)(C)C1 [Example 6028],0.1 to 100
21,CC(C)(C)OC(=O)N1CCCCNC(=O)c2ccc(cc2)Nc2nc(nc(OCC(F)(F)F)n2)NC2(CC2)c2ccc(cc2)OCCC1 [Example 5006],0.1 to 100

row,Structure (SMILES),EC50 [nM]
1,CC(=O)N1CCCCNC(=O)c2ccc(cc2)Nc2nc(nc(OCC(F)(F)F)n2)NCc2ccc(cc2)OCC1 [Example 4002],100 to 1000
2,CN1CCCOc2ccc(cc2)CNc2nc(nc(OCC(F)(F)F)n2)Nc2ccc(cc2)C(=O)NCC(C)(C)C1 [Example 6040],0.1 to 100
3,CC(C)NC(=O)N1CCCOc2ccc(cc2)CNc2nc(nc(OCC(F)(F)F)n2)Nc2ccc(cc2)C(=O)NCC(C)(C)C1 [Example 6037],0.1 to 100
4,O=C1NCc2ccc(cc2)Nc2nc(nc(OCC(F)(F)F)n2)NCc2cccc(c2)CNC(=O)c2ccccc21 [Example 0059],0.1 to 100
5,CCCOC(=O)N1CCCCCCCCNc2nc(nc(OCC(F)(F)F)n2)Nc2ccc(cc2)C(=O)NCCC1 [Example 9004],0.1 to 100
6,O=C1CCCCCCCCC(=O)NCc2cccc(c2)CNc2nc(nc(OCC(F)(F)F)n2)Nc2ccc(cc2)CN1 [Example 0065],100 to 1000
7,O=C1CCCC(=O)NCc2ccc(cc2)Nc2nc(nc(OCC(F)(F)F)n2)NCc2ccc(cc2)CN1 [Example 0061],100 to 1000
8,CCN1CCCOc2ccc(cc2)CNc2nc(nc(OCC(F)(F)F)n2)Nc2ccc(cc2)C(=O)NCC(C)(C)C1 [Example 6041],0.1 to 100
9,CN1CCNC(=O)c2ccc(cc2)CNc2nc(nc(OCC(F)(F)F)n2)Nc2ccc(cc2)C(=O)NCC1 [Example 0042],100 to 1000
10,COC(=O)N1CCCNC(=O)c2ccc(cc2)Nc2nc(nc(OCC(F)(F)F)n2)NCc2ccc(cc2)OCCC1 [Example 6014],0.1 to 100
11,CC(C)NC(=O)N1CCCCOc2ccc(cc2)CNc2nc(nc(OCC(F)(F)F)n2)Nc2ccc(cc2)C(=O)NCCC1 [Example 4032],0.1 to 100
12,CC(C)(C)NC(=O)N1CCCCNC(=O)c2ccc(cc2)Nc2nc(nc(OCC(F)(F)F)n2)NCc2ccc(cc2)OCC1 [Example 4009],0.1 to 100
13,CNC(=O)N1CCCCNC(=O)c2ccc(cc2)Nc2nc(nc(OCC(F)(F)F)n2)NCc2ccc(cc2)OCC1 [Example 4006],0.1 to 100
14,CNC(=O)N1CCCCNC(=O)c2ccc(cc2)Nc2nc(nc(OCC(F)(F)F)n2)NC2(CC2)c2ccc(cc2)OCCC1 [Example 5004],0.1 to 100
15,CC(C)(C)NC(=O)N1CCCCOc2ccc(cc2)CNc2nc(nc(OCC(F)(F)F)n2)Nc2ccc(cc2)C(=O)NCCC1 [Example 4034],0.1 to 100
16,O=C1NS(=O)(=O)C/C=C/CCCOc2ccc(cc2)CNc2nc(nc(OCC(F)(F)F)n2)Nc2ccc1cc2 [Example 3005],1000 to 5000
17,CNC(=O)N1CCCCCCCCNc2nc(nc(OCC(F)(F)F)n2)Nc2ccc(cc2)C(=O)NCCC1 [Example 9006],0.1 to 100
18,CC(C)(C)NC(=O)N1CCCCCCCCNc2nc(nc(OCC(F)(F)F)n2)Nc2ccc(cc2)C(=O)NCCC1 [Example 9008],0.1 to 100
19,CCCOC(=O)N1CCCOc2ccc(cc2)CNc2nc(nc(OCC(F)(F)F)n2)Nc2ccc(cc2)C(=O)NCC(C)(C)C1 [Example 6034],0.1 to 100

# Same assay, conditions: Hepatitis C virus, Huh-7, 48 h, read-out: EC50 (nM) 1a (H77C), numeric value, HCV pseudoparticles genotype 1a (H77C), luciferase 2 days after infection
row,Structure (SMILES),EC50 [nM]
1,COCC(=O)N1CCCCNC(=O)c2ccc(cc2)Nc2nc(nc(OCC(F)(F)F)n2)NCc2ccc(cc2)OCC1 [Example 4035],4.37
2,O=C1CCCNC(=O)c2ccc(cc2)Nc2nc(nc(OCC(F)(F)F)n2)NCc2ccc(cc2)OCC=CCS(=O)(=O)N1 [Example 3010],20.3
3,CCNC(=O)N1CCCCNC(=O)c2ccc(cc2)Nc2nc(nc(OCC(F)(F)F)n2)NCc2ccc(cc2)OCCC1 [Example 6022],11.8
4,CCNC(=O)N1CCCNC(=O)c2ccc(cc2)Nc2nc(nc(OCC(F)(F)F)n2)NCc2ccc(cc2)OCCC1 [Example 6012],6.1
5,O=C1CCCCNC(=O)c2ccc(cc2)Nc2nc(nc(OCC(F)(F)F)n2)NCc2ccc(cc2)OC/C=C/S(=O)(=O)N1 [Example 3012],275
6,O=C1COCC(=O)NCc2ccc(cc2)Nc2nc(nc(OCC(F)(F)F)n2)NCc2ccc(cc2)CN1 [Example 0069],78.8
7,O=C1CNC(=O)c2ccc(cc2)Nc2nc(nc(OCC(F)(F)F)n2)NCc2ccc(cc2)OCC=CCS(=O)(=O)N1 [Example 3007],557
8,CC(=O)N1CCCCNC(=O)c2ccc(cc2)Nc2nc(nc(OCC(F)(F)F)n2)NCc2ccc(cc2)OCC1 [Example 4002],105
9,COC(=O)N1CCCNC(=O)c2ccc(cc2)Nc2nc(nc(OCC(F)(F)F)n2)NCc2ccc(cc2)OCCC1 [Example 6014],1.51
10,CC(C)(C)NC(=O)N1CCCCNC(=O)c2ccc(cc2)Nc2nc(nc(OCC(F)(F)F)n2)NCc2ccc(cc2)OCC1 [Example 4009],8.47

# Same assay, conditions: class symbol, HCV pseudoparticles genotype 1a (H77C), luciferase 2 days after infection, read-out: EC50 (nM) 1a (H77C)
row,Structure (SMILES),EC50 [nM]
1,O=C1NCCNCCNc2nc(nc(OCC(F)(F)F)n2)Nc2ccc1cc2 [Example 0001],1000 to 5000
2,O=C1NCCCCCCCCNc2nc(nc(OCC(F)(F)F)n2)Nc2ccc1cc2 [Example 0002],0.1 to 100
3,O=C1NCCCNCCCOc2ccc(cc2)C2(CC2)Nc2nc(nc(OCC(F)(F)F)n2)Nc2ccc1cc2 [Example 5001],0.1 to 100

# Same assay, conditions: numeric value, HCV pseudoparticles genotype 1a (H77C), luciferase 2 days after infection, read-out: EC50 (nM) 1a (H77C)
row,Structure (SMILES),EC50 [nM]
1,O=C1NCCNCCNc2nc(nc(OCC(F)(F)F)n2)Nc2ccc1cc2 [Example 0001],4200
